Measured values reported in patent US20110281922A1, “AMIDE THIAZOLE DERIVATIVE, PREPARATION METHOD AND USES THEREOF” (TIANJIN INSTITUTE OF PHARMACEUTICAL RESEARCH, priority 2008, published 2011).
Structures can show the parent of a compound that is named as a salt.

Tested on: ICR mice
Test: Glucose tolerance in fasted ICR mice: serum glucose by glucose-oxidase method after intraperitoneal glucose load
Format: in vivo
Conditions: dose 100 mg/kg; for 0.5 h blood sugar: serum glucose 0.5 h after modeling (2 g/kg glucose i.p. 2 h after administration; 1.5 h for diamicron); for 1 h blood sugar: serum glucose 1 h after modeling (2 g/kg glucose i.p. 2 h after administration; 1.5 h for diamicron); for 2 h blood sugar: serum glucose 2 h after modeling (2 g/kg glucose i.p. 2 h after administration; 1.5 h for diamicron); for 3 h blood sugar: serum glucose 3 h after modeling (2 g/kg glucose i.p. 2 h after administration; 1.5 h for diamicron); for 4 h blood sugar: serum glucose 4 h after modeling (2 g/kg glucose i.p. 2 h after administration; 1.5 h for diamicron)
Description: 1% sodium carboxymethyl cellulose is used to formulate the sample to a suspension with the concentration of 5 mg/mL, the administration amount is 0.4 mL/20 g body weight, which is corresponding to 100 mg/kg dosage.
The health ICR mice with 20-24 g of body weight fulfill the primary standard, and the male and female of them are in equal. The animals are fasted for 16 hours, and 2 g/kg of glucose-saline solution is injected intraperitoneally at 2 h after administration (glucose is injected at 1.5 h after administration of diamicron). The blood is regularly collected from the post-glomus venous plexus in mice with capillary at 0.5 h, 1 h, 2 h, 3 h, and 4 h after modeling, centrifuged to separate the blood serum, and the content of serum glucose is measured at each of the time-point by glucose-oxidase method.

SMILES | 0.5 h blood sugar | 1 h blood sugar | 2 h blood sugar | 3 h blood sugar | 4 h blood sugar
Cc1ccc(S(=O)(=O)NC(=O)NN2CC3CCCC3C2)cc1 (stereo not drawn) [diamicron, reference compound] | 211.0 ± 91.3 mg/dL | 140.3 ± 74.4 mg/dL | 103.4 ± 31.7 mg/dL | 77.2 ± 25.8 mg/dL | 62.3 ± 22.3 mg/dL
Cc1csc(NC(=O)CNCc2cccs2)n1.Cl [Compound I-14, 4-methyl-2-{2-[(thienyl-2-methyl)amino]acetyl}amino thiazole hydrochloride] | 233.2 ± 18.1 mg/dL | 176.2 ± 25.2 mg/dL | 95.4 ± 46.9 mg/dL | 65.3 ± 20.1 mg/dL | 70.1 ± 15.3 mg/dL
COC(=O)c1csc(NC(=O)CNCc2scc(C)c2Br)n1 [Compound I-8, 2-{2-[(3-bromo-4-methylthienyl-2-methyl)amino]acetyl}amino thiazole-4-methyl formate] | 162.5 ± 20.6 mg/dL | 102.0 ± 30.5 mg/dL | 98.7 ± 20.5 mg/dL | 62.5 ± 15.3 mg/dL | 50.6 ± 18.9 mg/dL
O=C(CNCc1ccccc1)Nc1nccs1 [Compound I-1, 2-{2-[(benzyl)amino]acetyl}amino thiazole] | 266.4 ± 56.9 mg/dL | 182.3 ± 57.6 mg/dL | 88.2 ± 17.6 mg/dL | 60.0 ± 15.6 mg/dL | 52.3 ± 28.1 mg/dL
O=C(CNCc1sccc1Br)Nc1nc(Br)cs1 [Compound I-7, 4-bromo-2-{2-[(3-bromothienyl-2-methyl)amino]acetyl}amino thiazole] | 186.0 ± 67.8 mg/dL | 130.2 ± 37.7 mg/dL | 100.9 ± 29.6 mg/dL | 83.3 ± 91.8 mg/dL | 72.1 ± 29.7 mg/dL
Cl.O=C(CNCc1occc1[N+](=O)[O-])Nc1nc(Br)cs1 [Compound I-15, 4-bromo-2-{2-[(3-nitrylfuranyl-2-methyl)amino]acetyl}amino thiazole hydrochloride] | 193.6 ± 76.4 mg/dL | 161.5 ± 42.6 mg/dL | 91.3 ± 20.0 mg/dL | 64.1 ± 20.2 mg/dL | 55.1 ± 14.2 mg/dL
O=C(CNCc1ccccc1Cl)Nc1nc(Br)cs1 [Compound I-2, 4-bromo-2-{2-[(2-chlorobenzyl)amino]acetyl}amino thiazole] | 199.2 ± 37.6 mg/dL | 153.3 ± 62.7 mg/dL | 93.3 ± 48.7 mg/dL | 58.2 ± 29.0 mg/dL | 60.0 ± 18.2 mg/dL
Cl.O=C(CNCc1ccccc1Cl)Nc1nc(Br)cs1 [Compound I-13, 4-bromo-2-{2-[(2-chlorobenzyl)amino]acetyl}amino thiazole hydrochloride] | 195.6 ± 78.1 mg/dL | 166.5 ± 44.2 mg/dL | 99.3 ± 20.9 mg/dL | 68.1 ± 21.5 mg/dL | 59.2 ± 18.3 mg/dL
Cc1csc(NC(=O)CNCc2cccs2)n1 [Compound I-6, 4-methyl-2-{2-[(thienyl-2-methyl)amino]acetyl}amino thiazole] | 240.1 ± 41.1 mg/dL | 186.8 ± 45.9 mg/dL | 113.6 ± 30.9 mg/dL | 76.6 ± 48.4 mg/dL | 88.0 ± 20.1 mg/dL
